According to patent US20050197350A1, “Novel quinoline, tetrahydroquinazoline, and pyrimidine derivatives and methods of treatment related to the use thereof” (TAISHO PHARMACEUTICAL CO., LTD., priority 2003, published 2005):

System: MCH receptors
Assay: MCH receptor activity class (method not given)
Conditions: MCH receptor activity class 1-3 (percent of control at 10^-7 M or IC50)

Question: Which class does the source give for `COc1cc(NC(=S)N[C@H]2CC[C@@H](Nc3nccc(N(C)C)n3)CC2)c(OC)cc1Cl` [compound 2353] here?
Answer: 3 (Class 3 The value of percent of control at 10^−7 M was more than 60% or the value of IC50 was more than 200 nM.)

Question: For `CN(C)c1ccnc(N[C@H]2CC[C@@H](NC(=S)Nc3c(F)cc(Br)cc3Br)CC2)n1` [compound 2345], which class is on record?
Answer: 2 (Class 2: The value of percent of control at 10^−7 M was from 40% to 60% or the value of IC′50 was from 50 nM to 200 nM.)

Question: For `CN(C)c1cc(N[C@H]2CC[C@@H](CNC(=O)Nc3ccc(Cl)cc3C(F)(F)F)CC2)nc2ccccc12` [compound 2387], which class is on record?
Answer: 3 (Class 3 The value of percent of control at 10^−7 M was more than 60% or the value of IC50 was more than 200 nM.)

Same assay, conditions: MCH receptor; class by percent of control at 10^-7 M or IC50

Question: Which class does the source give for `CN(C)c1cc(N[C@H]2CC[C@@H](CNC(=O)c3cc(F)cc(C(F)(F)F)c3)CC2)nc2ccccc12` [compound 165] here?
Answer: 3 (Class 3 The value of percent of control at 10^−7 M was more than 60% or the value of IC50 was more than 200 nM.)

Question: For `CC(=O)OC(C(=O)N[C@H]1CC[C@@H](Nc2cc(N(C)C)c3ccccc3n2)CC1)c1ccccc1` (relative stereo) [compound 92], which class is on record?
Answer: 3 (Class 3 The value of percent of control at 10^−7 M was more than 60% or the value of IC50 was more than 200 nM.)

Question: Which class does the source give for `COc1ccc(CCNC(=S)N[C@H]2CC[C@@H](Nc3nc4c(c(N(C)C)n3)CCCC4)CC2)cc1OC` [compound 1997] here?
Answer: 3 (Class 3 The value of percent of control at 10^−7 M was more than 60% or the value of IC50 was more than 200 nM.)

Question: How did the class turn out when `CN(C)c1cc(N[C@H]2CC[C@@H](CNC(=O)/C=C/c3ccc([N+](=O)[O-])cc3)CC2)nc2ccccc12` [compound 206] was run?
Answer: 2 (Class 2: The value of percent of control at 10^−7 M was from 40% to 60% or the value of IC′50 was from 50 nM to 200 nM.)

Question: `CCOc1ccc2ccccc2c1C(=O)N[C@H]1CC[C@@H](Nc2cc(N(C)C)c3ccccc3n2)CC1` [compound 129] was tested. Which class did it give?
Answer: 3 (Class 3 The value of percent of control at 10^−7 M was more than 60% or the value of IC50 was more than 200 nM.)

Question: How did the class turn out when `CN(C)c1cc(N[C@H]2CC[C@@H](CNC(=O)c3cc(F)c(Cl)cc3Cl)CC2)nc2ccccc12` [compound 166] was run?
Answer: 3 (Class 3 The value of percent of control at 10^−7 M was more than 60% or the value of IC50 was more than 200 nM.)

Question: For `CN(C)c1nc(N[C@H]2CC[C@@H](NC(=S)Nc3ccccc3)CC2)nc2c1CCCC2` [compound 1955], which class is on record?
Answer: 3 (Class 3 The value of percent of control at 10^−7 M was more than 60% or the value of IC50 was more than 200 nM.)

Question: How did the class turn out when `CC(C)c1ccc(NC(=S)N[C@H]2CC[C@@H](Nc3nc4c(c(N(C)C)n3)CCCC4)CC2)cc1` [compound 2016] was run?
Answer: 3 (Class 3 The value of percent of control at 10^−7 M was more than 60% or the value of IC50 was more than 200 nM.)

Question: Which class does the source give for `COc1ccc(OC)c(CC(=O)N[C@H]2CC[C@@H](Nc3cc(N(C)C)c4ccccc4n3)CC2)c1` [compound 35] here?
Answer: 3 (Class 3 The value of percent of control at 10^−7 M was more than 60% or the value of IC50 was more than 200 nM.)

Question: How did the class turn out when `CC(NC(=S)N[C@H]1CC[C@@H](Nc2nc3c(c(N(C)C)n2)CCCC3)CC1)c1ccc(F)cc1` (relative stereo) [compound 2014] was run?
Answer: 3 (Class 3 The value of percent of control at 10^−7 M was more than 60% or the value of IC50 was more than 200 nM.)

Question: For `CN(C)c1cc(N[C@H]2CC[C@@H](NC(=O)Cc3cccc4ccccc34)CC2)nc2ccccc12` [compound 89], which class is on record?
Answer: 3 (Class 3 The value of percent of control at 10^−7 M was more than 60% or the value of IC50 was more than 200 nM.)

Question: Which class does the source give for `CN(C)c1nc(N[C@H]2CC[C@@H](NC(=S)Nc3cc(F)cc(F)c3)CC2)nc2c1CCCC2` [compound 1982] here?
Answer: 3 (Class 3 The value of percent of control at 10^−7 M was more than 60% or the value of IC50 was more than 200 nM.)

Same assay, conditions: activity class per percent of control at 10^-7 M or IC50

Question: How did the class turn out when `C[C@@H](NC(=O)c1ccccc1C(=O)N[C@H]1CC[C@@H](Nc2nc3c(c(N(C)C)n2)CCCC3)CC1)c1cccc2ccccc12` [compound 1013] was run?
Answer: 3 (Class 3 The value of percent of control at 10^−7 M was more than 60% or the value of IC50 was more than 200 nM.)

Question: How did the class turn out when `COc1ccc(Br)cc1CNC[C@H]1CC[C@@H](Nc2cc(N(C)C)c3ccccc3n2)CC1` [compound 1145] was run?
Answer: 3 (Class 3 The value of percent of control at 10^−7 M was more than 60% or the value of IC50 was more than 200 nM.)

Question: How did the class turn out when `CC1=C(CC(=O)N[C@H]2CC[C@@H](Nc3nc4c(c(N(C)C)n3)CCCC4)CC2)c2cc(F)ccc2/C1=C/c1ccc([S+](C)[O-])cc1` (relative stereo) [compound 1019] was run?
Answer: 1 (Class 1: The value of percent of control at 10^−7 M was less than 40% or the value of IC50 was less than 50 nM.)

Same assay, conditions: class 1-3 by percent of control at 10^-7 M or IC50

Question: With `CN(C)c1nc(N[C@H]2CC[C@@H](NC(=O)c3cc(F)c(F)c(F)c3F)CC2)nc2c1CCCC2` [compound 564] as the compound, how does the class read?
Answer: 3 (Class 3 The value of percent of control at 10^−7 M was more than 60% or the value of IC50 was more than 200 nM.)

Question: With `C/C(=C\c1ccccc1)C(=O)N[C@H]1CC[C@@H](Nc2nc3c(c(N(C)C)n2)CCCC3)CC1` [compound 523] as the compound, how does the class read?
Answer: 3 (Class 3 The value of percent of control at 10^−7 M was more than 60% or the value of IC50 was more than 200 nM.)

Question: With `CN(C)c1nc(N[C@H]2CC[C@@H](NC(=O)c3cc(F)c(Cl)cc3Cl)CC2)nc2c1CCCC2` [compound 475] as the compound, how does the class read?
Answer: 3 (Class 3 The value of percent of control at 10^−7 M was more than 60% or the value of IC50 was more than 200 nM.)

Same assay, conditions: class by percent of control at 10^-7 M or IC50

Question: For `Cc1c(Cl)cccc1NC(=O)N[C@H]1CC[C@@H](Nc2nccc(N(C)C)n2)CC1` [compound 2205], which class is on record?
Answer: 3 (Class 3 The value of percent of control at 10^−7 M was more than 60% or the value of IC50 was more than 200 nM.)

Question: `CN(C)c1cc(N[C@H]2CC[C@@H](NC(=O)C3CCc4ccccc4C3)CC2)nc2ccccc12` (relative stereo) [compound 778] was tested. Which class did it give?
Answer: 3 (Class 3 The value of percent of control at 10^−7 M was more than 60% or the value of IC50 was more than 200 nM.)

Question: How did the class turn out when `CN(C)c1ccnc(N[C@H]2CC[C@@H](CNCc3ccc(O)cc3)CC2)n1` [compound 1275] was run?
Answer: 3 (Class 3 The value of percent of control at 10^−7 M was more than 60% or the value of IC50 was more than 200 nM.)

Question: For `CN(C)c1nc(N[C@H]2CC[C@@H](CNC(=O)c3ccc(F)c(Cl)c3F)CC2)nc2c1CCCC2` [compound 624], which class is on record?
Answer: 3 (Class 3 The value of percent of control at 10^−7 M was more than 60% or the value of IC50 was more than 200 nM.)

Question: How did the class turn out when `CN(C)c1ccnc(N[C@H]2CC[C@@H](NC(=O)c3ccc(-c4ccc(Cl)cc4)o3)CC2)n1` [compound 836] was run?
Answer: 1 (Class 1: The value of percent of control at 10^−7 M was less than 40% or the value of IC50 was less than 50 nM.)

Question: `COc1ccc(OC)c(CN[C@H]2CC[C@@H](Nc3nc4c(c(N(C)C)n3)CCCC4)CC2)c1` [compound 1329] was tested. Which class did it give?
Answer: 3 (Class 3 The value of percent of control at 10^−7 M was more than 60% or the value of IC50 was more than 200 nM.)

Question: With `Cc1c(C(=O)N[C@H]2CC[C@@H](Nc3nccc(N(C)C)n3)CC2)cc(-c2ccccc2)n1CCCN1CCOCC1` [compound 863, N-(cis-4-{[4-(dimethylamino)pyrimidin-2-yl]amino}cyclohexyl)-2-methyl-1-(3-morpholin-4-ylpropyl)-5-phenyl-1H-pyrrole-3-carboxamide] as the compound, how does the class read?
Answer: 2 (Class 2: The value of percent of control at 10^−7 M was from 40% to 60% or the value of IC′50 was from 50 nM to 200 nM.)

Question: How did the class turn out when `CCNC(=O)N[C@H]1CC[C@@H](Nc2nc3c(c(N(C)C)n2)CCCC3)CC1` [compound 1825] was run?
Answer: 3 (Class 3 The value of percent of control at 10^−7 M was more than 60% or the value of IC50 was more than 200 nM.)

Question: With `Cc1ccnc(SCC(=O)N[C@H]2CC[C@@H](Nc3nc4c(c(N(C)C)n3)CCCC4)CC2)n1` [compound 972] as the compound, how does the class read?
Answer: 2 (Class 2: The value of percent of control at 10^−7 M was from 40% to 60% or the value of IC′50 was from 50 nM to 200 nM.)

Question: Which class does the source give for `C[C@@H](NC(=O)c1ccccc1C(=O)N[C@H]1CC[C@@H](Nc2nccc(N(C)C)n2)CC1)c1cccc2ccccc12` [compound 877, N-(cis-4-{[4-(dimethylamino)pyrimidin-2-yl]amino}cyclohexyl)-N′-[(1R)-1-(1-naphthyl)ethyl]phthalamide] here?
Answer: 2 (Class 2: The value of percent of control at 10^−7 M was from 40% to 60% or the value of IC′50 was from 50 nM to 200 nM.)

Question: Which class does the source give for `CN(C)c1ccnc(N[C@H]2CC[C@@H](NC(=O)c3ccc(I)o3)CC2)n1` [compound 819, N-(cis-4-{[4-(dimethylamino)pyrimidin-2-yl]amino}cyclohexyl)-5-iodo-2-furamide] here?
Answer: 2 (Class 2: The value of percent of control at 10^−7 M was from 40% to 60% or the value of IC′50 was from 50 nM to 200 nM.)

Question: How did the class turn out when `COc1cc(CCN[C@H]2CC[C@@H](Nc3nc4c(c(N(C)C)n3)CCCC4)CC2)cc(OC)c1` [compound 1493] was run?
Answer: 2 (Class 2: The value of percent of control at 10^−7 M was from 40% to 60% or the value of IC′50 was from 50 nM to 200 nM.)

Question: Which class does the source give for `CN(C)c1ccnc(N[C@H]2CC[C@@H](CNC(=O)c3ccc(Br)cc3)CC2)n1` [compound 367] here?
Answer: 3 (Class 3 The value of percent of control at 10^−7 M was more than 60% or the value of IC50 was more than 200 nM.)

Same assay, conditions: class by percent of control at 10^−7 M or IC50

Question: `Cc1cnc(N[C@H]2CC[C@@H](CNC(=O)c3ccc4c(c3)OC(F)(F)O4)CC2)nc1N(C)C` [compound 2708] was tested. Which class did it give?
Answer: 2 (Class 2: The value of percent of control at 10^−7 M was from 40% to 60% or the value of IC′50 was from 50 nM to 200 nM.)

Question: For `Cc1cc(N(C)C)nc(N[C@H]2CC[C@@H](C(=O)NCc3ccccc3)CC2)n1` [compound 2798, cis-N-benzyl-4-{[4-(dimethylamino)-6-methylpyrimidin-2-yl]amino}cyclohexanecarboxamide], which class is on record?
Answer: 2 (Class 2: The value of percent of control at 10^−7 M was from 40% to 60% or the value of IC′50 was from 50 nM to 200 nM.)

Question: For `Cc1cc(N(C)C)nc(N[C@H]2CC[C@@H](C(=O)N[C@H](C)c3ccc(Cl)cc3)CC2)n1` [compound 2805, cis-N-[(1R)-1-(4-chlorophenyl)ethyl]-4-{[4-(dimethylamino)-6-methylpyrimidin-2-yl]amino}cyclohexanecarboxamide], which class is on record?
Answer: 1 (Class 1: The value of percent of control at 10^−7 M was less than 40% or the value of IC50 was less than 50 nM.)

Question: With `COc1ccc(C(=O)N[C@H]2CC[C@@H](Nc3ncc(C)c(N(C)C)n3)CC2)cc1` [compound 2913] as the compound, how does the class read?
Answer: 3 (Class 3 The value of percent of control at 10^−7 M was more than 60% or the value of IC50 was more than 200 nM.)
